Here are results for 25 compounds from US9387200B2, “Isothiazole-pyridine derivatives as modulators of HIF (hypoxia inducible factor) activity” (FibroGen, Inc., priority 2008, dated 2016).

SMILES strings stand for the structures.

T1 sequence (Q9GZT9 whole entry, species assumed): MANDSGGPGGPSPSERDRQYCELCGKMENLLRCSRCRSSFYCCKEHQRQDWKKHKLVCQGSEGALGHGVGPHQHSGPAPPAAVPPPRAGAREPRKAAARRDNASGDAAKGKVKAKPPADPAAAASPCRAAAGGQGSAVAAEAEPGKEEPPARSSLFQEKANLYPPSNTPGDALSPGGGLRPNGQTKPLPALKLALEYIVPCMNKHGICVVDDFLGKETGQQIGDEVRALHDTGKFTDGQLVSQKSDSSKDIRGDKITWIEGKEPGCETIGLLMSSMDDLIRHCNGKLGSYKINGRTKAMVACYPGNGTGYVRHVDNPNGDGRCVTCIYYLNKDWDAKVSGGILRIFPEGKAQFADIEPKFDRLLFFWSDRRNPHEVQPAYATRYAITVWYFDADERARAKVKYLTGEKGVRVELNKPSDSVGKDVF

One assay concerns the target T1, HIF-PH2 (Homo sapiens, UniProt Q9GZT9).
T1 construct: made in house; host or cells: insect Hi5 cells
Kind of assay: HIF-PH assay (14CO2 capture, peptide-dependent turnover). The note with it: compound concentration 22.22 μM. Format: biochemical. From the text:
Ketoglutaric acid α-[1-^14C]-sodium salt, alpha-ketoglutaric acid sodium salt, and HPLC purified peptide may be obtained from commercial sources, e.g., Perkin-Elmer (Wellesley Mass.), Sigma-Aldrich, and SynPep Corp. (Dublin Calif.), respectively. Peptides for use in the assay may be fragments of HIFα as described above or as disclosed in International Publication WO 2005/118836, incorporated by reference herein. For example, a HIF peptide for use in the HIF-PH assay is [methoxycoumarin]-DLDLEALAPYIPADDDFQL-amide. HIF-PH, e.g., HIF-PH2 (EGLN1), can be expressed in, e.g., insect Hi5 cells, and partially purified, e.g., through a SP ion exchange chromatography column. Enzyme activity is determined by capturing ^14CO2 using an assay described by Kivirikko and Myllyla (1982, Methods Enzymol. 82:245-304). Assay reactions contain 50 mM HEPES (pH 7.4), 100 μM α-ketoglutaric acid sodium salt, 0.30 μCi/mL ketoglutaric acid α-[1-^14C]-sodium salt, 40 μM FeSO4, 1 mM ascorbate, 1541.8 units/mL Catalase, with or without 50 μM peptide substrate and various concentrations of compound of the invention. Reactions are initiated by addition of HIF-PH enzyme.
The peptide-dependent percent turnover is calculated by subtracting percent turnover in the absence of peptide from percent turnover in the presence of substrate peptide. Percent inhibition and IC50 are calculated using peptide-dependent percent turnover at given inhibitor concentrations. Calculation of IC50 values for each inhibitor is conducted using GraFit software (Erithacus Software Ltd., Surrey UK).
Representative compounds of the invention were analyzed using the HIF-PH assay described above. Table I below presents enzyme inhibition data for exemplary compounds against HIF-PH2, a representative HIF prolyl hydroxylase enzyme. By inhibiting HIF prolyl hydroxylase enzymes, compounds of the invention stabilize HIFα, which then combines with HIFβ to form an active transcription factor that increases expression of various genes involved in numerous beneficial cellular processes.
As to `N#Cc1nc(C(=O)NCC(=O)O)c(O)c2c(-c3ccc(F)cc3)nsc12` [Example 8, {[7-Cyano-3-(4-fluoro-phenyl)-4-hydroxy-isothiazolo[5,4-c]pyridine-5-carbonyl]-amino}-acetic acid], at 22.22 µM the inhibition was 98.3%. As for `N#Cc1ccc(-c2nc(C(=O)NCC(=O)O)c(O)c3c(-c4ccc(F)cc4)nsc23)cc1` [Example 11, {[7-(4-Cyano-phenyl)-3-(4-fluoro-phenyl)-4-hydroxy-isothiazolo[5,4-c]pyridine-5-carbonyl]-amino}-acetic acid], at 22.22 µM the inhibition was 91.5%. Consider `O=C(O)CNC(=O)c1nc(Cc2ccccc2)c2snc(-c3ccc(Cl)cc3)c2c1O` [Example 22, {[7-Benzyl-3-(4-chloro-phenyl)-4-hydroxy-isothiazolo[5,4-c]pyridine-5-carbonyl]-amino}-acetic acid], for which the inhibition (as a rule, the drop in the measured response relative to a control, in per cent) at 22.22 µM came out at 97%.

`O=C(O)CNC(=O)c1nc(-c2cn(Cc3ccccc3)nn2)c2snc(-c3ccc(Cl)cc3)c2c1O` [Example 23, {[7-(1-Benzyl-1H-[1,2,3]triazol-4-yl)-3-(4-chloro-phenyl)-4-hydroxy-isothiazolo[5,4-c]pyridine-5-carbonyl]-amino}-acetic acid] displayed an inhibition at 22.22 µM of 100%. Consider `O=C(O)CNC(=O)c1nc(-c2cccc3ccccc23)c2snc(-c3ccc(Cl)cc3)c2c1O` [Example 24, {[3-(4-Chloro-phenyl)-4-hydroxy-7-naphthalen-1-yl-isothiazolo[5,4-c]pyridine-5-carbonyl]-amino}-acetic acid], for which the inhibition at 22.22 µM stood at 96%.

The same assay, now with this note: compound concentration 200 μM.
In the case of `O=C(O)CNC(=O)c1nc(-c2ccc(F)cc2)c2snc(-c3ccccc3)c2c1O` [Example 1, {[7-(4-Fluoro-phenyl)-4-hydroxy-3-phenyl-isothiazolo[5,4-c]pyridine-5-carbonyl]-amino}-acetic acid], the inhibition at 200 µM worked out at 98%. Take `COc1ccc(-c2nc(C(=O)NCC(=O)O)c(O)c3c(-c4ccccc4)nsc23)cc1` [Example 2, {[4-Hydroxy-7-(4-methoxy-phenyl)-3-phenyl-isothiazolo[5,4-c]pyridine-5-carbonyl]-amino}-acetic acid]: at 200 µM the inhibition was 97.9%. With `O=C(O)CNC(=O)c1nc(-c2cccnc2)c2snc(-c3ccccc3)c2c1O` [Example 3, [(4-Hydroxy-3-phenyl-7-pyridin-3-yl-isothiazolo[5,4-c]pyridine-5-carbonyl)-amino]-acetic acid], testing at 200 µM gave an inhibition of 100%. Consider `O=C(O)CNC(=O)c1nc(-c2ccccn2)c2snc(-c3ccccc3)c2c1O` [Example 4, [(4-Hydroxy-3-phenyl-7-pyridin-2-yl-isothiazolo[5,4-c]pyridine-5-carbonyl)-amino]-acetic acid], for which the inhibition at 200 µM came to 99.1%. The compound `O=C(O)CNC(=O)c1nc(-c2ccncc2)c2snc(-c3ccccc3)c2c1O` [Example 5, [(4-Hydroxy-3-phenyl-7-pyridin-4-yl-isothiazolo[5,4-c]pyridine-5-carbonyl)-amino]-acetic acid] showed an inhibition at 200 µM of 97.1%.

`C#Cc1nc(C(=O)NCC(=O)O)c(O)c2c(-c3ccc(F)cc3)nsc12` [Example 6, {[7-Ethynyl-3-(4-fluoro-phenyl)-4-hydroxy-isothiazolo[5,4-c]pyridine-5-carbonyl]-amino}-acetic acid] gave an inhibition at 200 µM of 98.3%. `O=C(O)CNC(=O)c1nc(Br)c2snc(-c3ccc(F)cc3)c2c1O` [Example 7, {[7-Bromo-3-(4-fluoro-phenyl)-4-hydroxy-isothiazolo[5,4-c]pyridine-5-carbonyl]-amino}-acetic acid] gave an inhibition at 200 µM of 100%. For `Cc1nc(C(=O)NCC(=O)O)c(O)c2c(-c3ccc(F)cc3)nsc12` [Example 9, {[3-(4-Fluoro-phenyl)-4-hydroxy-7-methyl-isothiazolo[5,4-c]pyridine-5-carbonyl]-amino}-acetic acid], the inhibition at 200 µM turned out to be 97.4%. Still for that read-out and setting: the figure for `O=C(O)CNC(=O)c1nc(-c2ccccc2)c2snc(-c3ccc(F)cc3)c2c1O` [Example 10, {[3-(4-Fluoro-phenyl)-4-hydroxy-7-phenyl-isothiazolo[5,4-c]pyridine-5-carbonyl]-amino}-acetic acid] is 98.2%. Same read-out and setting: as for `O=C(O)CNC(=O)c1ncc2snc(-c3ccc(F)cc3)c2c1O` [Example 12, {[3-(4-Fluoro-phenyl)-4-hydroxy-isothiazolo[5,4-c]pyridine-5-carbonyl]-amino}-acetic acid], the figure is 98.9%. `COc1ccc(-c2nc(C(=O)NCC(=O)O)c(O)c3c(-c4ccc(Cl)cc4)nsc23)cc1` [Example 13, {[3-(4-Chloro-phenyl)-4-hydroxy-7-(4-methoxy-phenyl)-isothiazolo[5,4-c]pyridine-5-carbonyl]-amino}-acetic acid] yielded an inhibition at 200 µM of 94.5%. The compound `C#Cc1nc(C(=O)NCC(=O)O)c(O)c2c(-c3ccc(Cl)cc3)nsc12` [Example 14, {[3-(4-Chloro-phenyl)-7-ethynyl-4-hydroxy-isothiazolo[5,4-c]pyridine-5-carbonyl]-amino}-acetic acid] registered an inhibition at 200 µM of 100%.

In the case of `Cc1nc(C(=O)NCC(=O)O)c(O)c2c(-c3ccc(Cl)cc3)nsc12` [Example 15, {[3-(4-Chloro-phenyl)-4-hydroxy-7-methyl-isothiazolo[5,4-c]pyridine-5-carbonyl]-amino}-acetic acid], the inhibition at 200 µM was 99.5%. Turning to `O=C(O)CNC(=O)c1ncc2snc(-c3ccc(Cl)cc3)c2c1O` [Example 16, {[3-(4-Chloro-phenyl)-4-hydroxy-isothiazolo[5,4-c]pyridine-5-carbonyl]-amino}-acetic acid], the inhibition at 200 µM was determined as 99.9%.

In the case of `O=C(O)CNC(=O)c1nc(-c2ccccc2)c2snc(-c3ccc(Cl)cc3)c2c1O` [Example 17, {[3-(4-Chloro-phenyl)-4-hydroxy-7-phenyl-isothiazolo[5,4-c]pyridine-5-carbonyl]-amino}-acetic acid], the inhibition at 200 µM worked out at 98.7%. `C[C@@H](NC(=O)c1ncc2snc(-c3ccc(Cl)cc3)c2c1O)C(=O)O` [Example 18, (R)-2-{[3-(4-Chloro-phenyl)-4-hydroxy-isothiazolo[5,4-c]pyridine-5-carbonyl]-amino}-propionic acid] came in with an inhibition at 200 µM of 54%. Compound `C[C@H](NC(=O)c1ncc2snc(-c3ccc(Cl)cc3)c2c1O)C(=O)O` [Example 19, (S)-2-{[3-(4-Chloro-phenyl)-4-hydroxy-isothiazolo[5,4-c]pyridine-5-carbonyl]-amino}-propionic acid] came in with an inhibition at 200 µM of 100%. `COc1cccc(-c2nc(C(=O)NCC(=O)O)c(O)c3c(-c4ccc(Cl)cc4)nsc23)c1` [Example 20, {[3-(4-Chloro-phenyl)-4-hydroxy-7-(3-methoxy-phenyl)-isothiazolo[5,4-c]pyridine-5-carbonyl]-amino}-acetic acid]: the inhibition at 200 µM was determined as 88.9%. In turn, `COc1ccc(-c2nc(C(=O)NCC(=O)O)c(O)c3c(-c4ccc(Cl)cc4)nsc23)cn1` [Example 21, {[3-(4-Chloro-phenyl)-4-hydroxy-7-(6-methoxy-pyridin-3-yl)-isothiazolo[5,4-c]pyridine-5-carbonyl]-amino}-acetic acid] gave an inhibition at 200 µM of 77%. The compound `CC(=O)c1nc(C(=O)NCC(=O)O)c(O)c2c(-c3ccc(Cl)cc3)nsc12` [Example 25, {[7-Acetyl-3-(4-chloro-phenyl)-4-hydroxy-isothiazolo[5,4-c]pyridine-5-carbonyl]-amino}-acetic acid] displayed an inhibition at 200 µM of 100%.
